Laboratory results taken from ChEMBL document CHEMBL4004849, “Tetrazolylmethyl quinolines: Design, docking studies, synthesis, anticancer and antifungal analyses” (2017).
Active and inactive are the calls of the source. The calls are words filed in the database; no cut-off is given here.

How the values were obtained:
Assay type in all cases: functional
[1] = system: Hs-578T; assay: Growth inhibition of human Hs 578T cells at 10^-5 M incubated for 48 hrs by sulforhodamine B assay relative to control; conditions: for inhibition of growth at 10 µM: read-out: GI
[2] = system: SW-620; assay: Growth inhibition of human SW620 cells at 10^-5 M incubated for 48 hrs by sulforhodamine B assay relative to control; conditions: for inhibition of growth at 10 µM: SW-620, 48 h, read-out: GI
[3] = system: COLO 205; assay: Growth inhibition of human COLO205 cells at 10^-5 M incubated for 48 hrs by sulforhodamine B assay relative to control; conditions: for inhibition of growth at 10 µM: COLO 205, 48 h, read-out: GI
[4] = system: CAKI-1; assay: Growth inhibition of human Caki1 cells at 10^-5 M incubated for 48 hrs by sulforhodamine B assay relative to control; conditions: for inhibition of growth at 10 µM: CAKI-1, 48 h, read-out: GI
[5] = system: DU-145; assay: Growth inhibition of human DU145 cells at 10^-5 M incubated for 48 hrs by sulforhodamine B assay relative to control; conditions: for inhibition of growth at 10 µM: DU-145, 48 h, read-out: GI
[6] = system: SNB-75; assay: Growth inhibition of human SNB75 cells at 10^-5 M incubated for 48 hrs by sulforhodamine B assay relative to control; conditions: for inhibition of growth at 10 µM: SNB-75, 48 h, read-out: GI
[7] = system: TK-10; assay: Growth inhibition of human TK10 cells at 10^-5 M incubated for 48 hrs by sulforhodamine B assay relative to control; conditions: for inhibition of growth at 10 µM: TK-10, 48 h, read-out: GI
[8] = system: HT-29; assay: Growth inhibition of human HT-29 cells at 10^-5 M incubated for 48 hrs by sulforhodamine B assay relative to control; conditions: for inhibition of growth at 10 µM: HT-29, 48 h, read-out: GI
[9] = system: NCI/ADR-RES; assay: Growth inhibition of human NCI-ADR-RES cells at 10^-5 M incubated for 48 hrs by sulforhodamine B assay relative to control; conditions: for inhibition of growth at 10 µM: read-out: GI
[10] = system: SF-539; assay: Growth inhibition of human SF539 cells at 10^-5 M incubated for 48 hrs by sulforhodamine B assay relative to control; conditions: for inhibition of growth at 10 µM: SF-539, 48 h, read-out: GI
[11] = system: SF-268; assay: Growth inhibition of human SF268 cells at 10^-5 M incubated for 48 hrs by sulforhodamine B assay relative to control; conditions: for inhibition of growth at 10 µM: SF-268, 48 h, read-out: GI
[12] = system: T47D; assay: Growth inhibition of human T47D cells at 10^-5 M incubated for 48 hrs by sulforhodamine B assay relative to control; conditions: for inhibition of growth at 10 µM: read-out: GI

Row | SMILES | growth inhibition (GI) [1] | growth inhibition (GI) [2] | growth inhibition (GI) [3] | growth inhibition (GI) [4] | growth inhibition (GI) [5] | growth inhibition (GI) [6] | growth inhibition (GI) [7] | growth inhibition (GI) [8] | growth inhibition (GI) [9] | growth inhibition (GI) [10] | growth inhibition (GI) [11] | growth inhibition (GI) [12] | also measured
1 | Fc1ccc2nc(Cl)c(Cn3nnnc3CSc3ccccc3)cc2c1 | Active | Active | Active | Active | Active | Active | Active | Active | Active | Active | Active | Active | –
2 | Clc1nc2ccccc2cc1Cn1nnnc1Cc1ccccc1 | Active | Active | Active | Active | Active | Active | Active | Active | Active | Active | Active | Active | –
3 | Clc1nc2ccccc2cc1Cn1nnc(Cc2ccccc2)n1 | – | – | – | – | – | – | – | – | – | – | – | – | inhibition of growth at 10 µM [1]: 23.4%; inhibition of growth at 10 µM [2]: 13.4%; inhibition of growth at 10 µM [3]: 17.3%; inhibition of growth at 10 µM [4]: 59.5%; inhibition of growth at 10 µM [5]: 24.8%; inhibition of growth at 10 µM [6]: 44.6%; inhibition of growth at 10 µM [7]: 39.1%; inhibition of growth at 10 µM [8]: 28.4%; inhibition of growth at 10 µM [9]: 47.9%; inhibition of growth at 10 µM [10]: 18.8%; inhibition of growth at 10 µM [11]: 34.3%; inhibition of growth at 10 µM [12]: 73.9%
4 | Clc1nc2ccccc2cc1Cn1nnnc1CSc1ccccc1 | Active | Active | Active | Active | Active | Active | Active | Active | Active | Active | Active | Active | –
5 | Cc1ccc2nc(Cl)c(Cn3nnc(CSc4ccccc4)n3)cc2c1 | Active | Active | Active | Active | Active | Active | Active | Active | Active | Active | Active | Active | –
6 | COc1ccc2nc(Cl)c(Cn3nnc(Cc4ccccc4)n3)cc2c1 | – | – | – | – | – | – | – | – | – | – | – | – | inhibition of growth at 10 µM [1]: 31.1%; inhibition of growth at 10 µM [2]: 33.6%; inhibition of growth at 10 µM [3]: 75.1%; inhibition of growth at 10 µM [4]: 56.1%; inhibition of growth at 10 µM [5]: 38.4%; inhibition of growth at 10 µM [6]: 42.9%; inhibition of growth at 10 µM [7]: 65.1%; inhibition of growth at 10 µM [8]: 72.6%; inhibition of growth at 10 µM [9]: 79.9%; inhibition of growth at 10 µM [10]: 32.5%; inhibition of growth at 10 µM [11]: 48.5%; inhibition of growth at 10 µM [12]: 97.6%
7 | Clc1nc2ccc(Br)cc2cc1Cn1nnnc1Cc1ccccc1 | Active | Active | Active | Active | Active | Active | Active | Active | Active | Active | Active | Active | –
8 | Clc1nc2ccc(Br)cc2cc1Cn1nnc(Cc2ccccc2)n1 | Active | Active | Active | Active | Active | Active | Active | Active | Active | Active | Active | Active | –
9 | COc1ccc2nc(Cl)c(Cn3nnnc3Cc3ccccc3)cc2c1 | Active | Active | Active | Active | Active | Active | Active | Active | Active | Active | Active | Active | –
10 | COc1ccc2nc(Cl)c(Cn3nnnc3CSc3ccccc3)cc2c1 | Active | Active | Active | Active | Active | Active | Active | Active | Active | Active | Active | Active | –
11 | Cc1ccc2nc(Cl)c(Cn3nnnc3CSc3ccccc3)cc2c1 | Active | Active | Active | Active | Active | Active | Active | Active | Active | Active | Active | Active | –
12 | Fc1ccc2nc(Cl)c(Cn3nnnc3Cc3ccccc3)cc2c1 | Active | Active | Active | Active | Active | Active | Active | Active | Active | Active | Active | Active | –
13 | Clc1nc2ccccc2cc1Cn1nnc(CSc2ccccc2)n1 | Active | Active | Active | Active | Active | Active | Active | Active | Active | Active | Active | Active | –
14 | Clc1nc2ccc(Br)cc2cc1Cn1nnnc1CSc1ccccc1 | Active | Active | Active | Active | Active | Active | Active | Active | Active | Active | Active | Active | –
15 | Fc1ccc2nc(Cl)c(Cn3nnc(CSc4ccccc4)n3)cc2c1 | Active | Active | Active | Active | Active | Active | Active | Active | Active | Active | Active | Active | –
16 | Cc1ccc2nc(Cl)c(Cn3nnnc3Cc3ccccc3)cc2c1 | Active | Active | Active | Active | Active | Active | Active | Active | Active | Active | Active | Active | –
17 | Fc1ccc2nc(Cl)c(Cn3nnc(Cc4ccccc4)n3)cc2c1 | Active | Active | Active | Active | Active | Active | Active | Active | Active | Active | Active | Active | –
